# Test results published in patent US9920010B2, “CXCR7 receptor modulators” (IDORSIA PHARMACEUTICALS LTD, priority 2013, dated 2018).
# Target: T1, CXCR7 (Homo sapiens, UniProt P25106)
# T1 construct: host or cells: CHO-K1 (PathHunter CHO-K1 CXCR7 b-arrestin cell line, stably transfected)
# Experiment: PathHunter CHO-K1 CXCR7 b-arrestin recruitment assay (CXCR7 agonistic activity)
# Assay type: cell-based
# Conditions: PathHunter CHO-K1 CXCR7 b-arrestin cell line
# Method in brief: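 Stable CHO-K1 line with C-terminally ProLink-tagged CXCR7 and β-arrestin 2–EA fusion; β-arrestin recruitment restores β-gal activity, read by chemiluminescence after 1 h RT detection. Cells seeded 24 h, starved in OPTIMEM 3–4 h, exposed to compounds 90 min at 37 °C in HBSS/HEPES/BSA. Geometric-mean EC50 from repeated measurements.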
# T1 sequence (P25106 whole entry): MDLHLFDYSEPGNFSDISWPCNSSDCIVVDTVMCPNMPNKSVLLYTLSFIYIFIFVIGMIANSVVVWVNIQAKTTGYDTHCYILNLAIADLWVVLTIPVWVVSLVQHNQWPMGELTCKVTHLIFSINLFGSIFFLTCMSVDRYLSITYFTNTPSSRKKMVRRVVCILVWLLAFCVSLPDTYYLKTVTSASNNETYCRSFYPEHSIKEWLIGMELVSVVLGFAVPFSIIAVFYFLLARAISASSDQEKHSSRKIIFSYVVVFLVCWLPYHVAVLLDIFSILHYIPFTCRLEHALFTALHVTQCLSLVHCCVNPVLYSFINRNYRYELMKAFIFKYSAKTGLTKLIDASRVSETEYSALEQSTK
# T1 sequence (P32121 whole entry partner): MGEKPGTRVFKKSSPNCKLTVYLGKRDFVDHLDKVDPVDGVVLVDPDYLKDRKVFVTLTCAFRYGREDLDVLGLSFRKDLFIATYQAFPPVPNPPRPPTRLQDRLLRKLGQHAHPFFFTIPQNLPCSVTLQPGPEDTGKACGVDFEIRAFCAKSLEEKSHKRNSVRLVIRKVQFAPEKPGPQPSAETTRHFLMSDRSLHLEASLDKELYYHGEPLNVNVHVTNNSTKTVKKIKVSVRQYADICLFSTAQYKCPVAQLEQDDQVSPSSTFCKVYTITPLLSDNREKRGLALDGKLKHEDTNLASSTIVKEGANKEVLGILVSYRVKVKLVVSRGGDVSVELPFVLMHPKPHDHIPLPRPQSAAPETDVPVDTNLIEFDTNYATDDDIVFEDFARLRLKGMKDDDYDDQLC
row,Structure (SMILES),EC50
1,"CCn1ccc(C(C)N(Cc2ccccc2C(F)(F)F)C(=O)CNc2cccc3c2CCN(CC2CC2)C3)n1 (racemic) [Example 80, rac-2-(2-Cyclopropylmethyl-1,2,3,4-tetrahydro-isoquinolin-5-ylamino)-N-[1-(1-ethyl-1H-pyrazol-3-yl)-ethyl]-N-(2-trifluoromethyl-benzyl)-acetamide]",47 nM
2,"CN(C)CCN(Cc1ccccc1)C(=O)CNc1cccc2c1CN(C)C2 [Example 208, N-Benzyl-N-(2-dimethylamino-ethyl)-2-(2-methyl-2,3-dihydro-1H-isoindol-4-ylamino)-acetamide]",248 nM
3,"COCCN1CCc2c(/C=C/C(=O)N(CCN(C)C)Cc3ccccc3C(F)(F)F)cccc2C1 [Example 317, (E)-N-(2-Dimethylamino-ethyl)-3-[2-(2-methoxy-ethyl)-1,2,3,4-tetrahydro-isoquinolin-5-yl]-N-(2-trifluoromethyl-benzyl)-acrylamide]",5 nM
4,"O=C(CNc1cccc2c1CN(CC1CC1)CC2)N(CC(=O)N1CC(F)(F)C1)Cc1ncccc1C(F)(F)F [compound 483, 2-(2-Cyclopropylmethyl-1,2,3,4-tetrahydro-isoquinolin-8-ylamino)-N-[2-(3,3-difluoro-azetidin-1-yl)-2-oxo-ethyl]-N-(3-trifluoromethyl-pyridin-2-ylmethyl)-acetamide]",33 nM
5,"COCCN1CCc2c(CCC(=O)N(Cc3ccccc3C(F)(F)F)CC(O)COC)cccc2C1 (stereo not drawn) [Example 339, N-(2-Hydroxy-3-methoxy-propyl)-3-[2-(2-methoxy-ethyl)-1,2,3,4-tetrahydro-isoquinolin-5-yl]-N-(2-trifluoromethyl-benzyl)-propionamide]",457 nM
6,O=C(/C=C/c1cccc2c1CCN(CC1CC1)C2)N(Cc1ccccc1)C1CCS(=O)(=O)C1 (stereo not drawn) [compound 147],16 nM
7,"O=C1CCCN1CCN(Cc1ccccc1C(F)(F)F)C(=O)CNc1cccc2c1CCN(CC1CC1)C2 [Example 63, 2-(2-Cyclopropylmethyl-1,2,3,4-tetrahydro-isoquinolin-5-ylamino)-N-[2-(2-oxo-pyrrolidin-1-yl)-ethyl]-N-(2-trifluoromethyl-benzyl)-acetamide]",19 nM
8,CCN1CCc2cccc(NCC(=O)N(CCNC)Cc3ccccc3)c2C1 [compound 443],147 nM
9,"CN(C)CCN(Cc1ccccc1C(F)(F)F)C(=O)CCc1cccc2c1CCN(CC1CC1)C2 [compound 158, 3-(2-Cyclopropylmethyl-1,2,3,4-tetrahydro-isoquinolin-5-yl)-N-(2-dimethylamino-ethyl)-N-(2-trifluoromethyl-benzyl)-propionamide]",2 nM
10,"O=C(CNc1cccc2c1CCN(CC1CC1)C2)N(CCN1CCNCC1)Cc1ccccc1C(F)(F)F [compound 438, 2-(2-Cyclopropylmethyl-1,2,3,4-tetrahydro-isoquinolin-5-ylamino)-N-(2-piperazin-1-yl-ethyl)-N-(2-trifluoromethyl-benzyl)-acetamide]",15 nM
11,CC(C)N1CCc2c(cccc2NCC(=O)N(CCN(C)C)Cc2ccccc2)C1 [compound 109],73 nM
12,CC(C)COC(=O)N1CCc2c(cccc2NCC(=O)N(CCN(C)C)Cc2ccccc2)C1 [compound 122],337 nM
13,"CCN1Cc2cccc(NCC(=O)N(CCN(C)C)Cc3ccccc3C(F)(F)F)c2CC1=O [Example 309, N-(2-Dimethylamino-ethyl)-2-(2-ethyl-3-oxo-1,2,3,4-tetrahydro-isoquinolin-5-ylamino)-N-(2-trifluoromethyl-benzyl)-acetamide]",24 nM
14,CNCCN(Cc1ncccc1C(F)(F)F)C(=O)CNc1cccc2c1CCN(C(=O)NC1CCCCC1)C2 [compound 433],166 nM
15,CCN1CCc2cccc(NCC(=O)N(CCN(C)C)Cc3nccs3)c2C1 [compound 541],175 nM
16,"CNCCN(Cc1ccccc1C(F)(F)F)C(=O)CNc1cccc2c1CCN(C(=O)C1CCC1)C2 [compound 389, 2-(2-Cyclobutanecarbonyl-1,2,3,4-tetrahydro-isoquinolin-5-ylamino)-N-(2-methylamino-ethyl)-N-(2-trifluoromethyl-benzyl)-acetamide]",20 nM
17,"COCCN1CCc2c(cccc2NCC(=O)N(CCN2CCC(F)(F)CC2)Cc2ncccc2C(F)(F)F)C1 [Example 300, N-[2-(4,4-Difluoro-piperidin-1-yl)-ethyl]-2-[2-(2-methoxy-ethyl)-1,2,3,4-tetrahydro-isoquinolin-5-ylamino]-N-(3-trifluoromethyl-pyridin-2-ylmethyl)-acetamide]",96 nM
18,"CN(C)CCN(Cc1ccccc1C(F)(F)F)C(=O)CNc1cccc2c1CCN(C(=O)C1CC1(F)F)C2 (racemic) [Example 570, rac-2-[2-(2,2-Difluoro-cyclopropanecarbonyl)-1,2,3,4-tetrahydro-isoquinolin-5-ylamino]-N-(2-dimethylamino-ethyl)-N-(2-trifluoromethyl-benzyl)-acetamide]",14 nM
19,"CCC(=O)N1CCc2c(cccc2NCC(=O)N(CCN(C)C)Cc2cccc(F)c2)C1 [Example 21, N-(2-Dimethylamino-ethyl)-N-(3-fluoro-benzyl)-2-(2-propionyl-1,2,3,4-tetrahydro-isoquinolin-5-ylamino)-acetamide]",39 nM
20,"CNCCN(Cc1ncccc1C(F)(F)F)C(=O)CNc1cccc2c1CCN(C(=O)OCCF)C2 [compound 425, 5-({[(2-Methylamino-ethyl)-(3-trifluoromethyl-pyridin-2-ylmethyl)-carbamoyl]-methyl}-amino)-3,4-dihydro-1H-isoquinoline-2-carboxylic acid 2-fluoro-ethyl ester]",27 nM
21,"CC(C)(C)OC(=O)N1CCc2c(/C=C/C(=O)N(Cc3ccccc3)C3CCS(=O)(=O)C3)cccc2C1 (stereo not drawn) [Example 95, 5-{(E)-2-[Benzyl-(1,1-dioxo-tetrahydro-1l6-thiophen-3-yl)-carbamoyl]-vinyl}-3,4-dihydro-1H-isoquinoline-2-carboxylic acid tert-butyl ester]",432 nM
22,"C=CCOC(=O)N1CCc2c(cccc2NCC(=O)N(CCNC)Cc2ccccc2C(F)(F)F)C1 [compound 397, 5-({[(2-Methylamino-ethyl)-(2-trifluoromethyl-benzyl)-carbamoyl]-methyl}-amino)-3,4-dihydro-1H-isoquinoline-2-carboxylic acid allyl ester]",35 nM
23,"O=C(CNc1cccc2c1CCN(CC1CC1)C2)N(CCN1CCCC1)Cc1ccccc1F [Example 44, 2-(2-Cyclopropylmethyl-1,2,3,4-tetrahydro-isoquinolin-5-ylamino)-N-(2-fluoro-benzyl)-N-(2-pyrrolidin-1-yl-ethyl)-acetamide]",3 nM
24,CN(C)CCN(Cc1ccccc1)C(=O)CNc1cccc2c1CN(C)CC2 [compound 182],69 nM
25,CN(C)CCN(Cc1ccccc1)C(=O)CNc1cccc2c1CCN(C(=O)Oc1ccccc1)C2 [compound 130],390 nM
26,CCN1CCc2cccc(NCC(=O)N(CCc3ccccc3C)CCN(C)C)c2C1 [compound 537],217 nM
27,"C/C(=C\c1cccc2c1CCN(CC1CC1)C2)C(=O)N(CCN(C)C)Cc1ccccc1C(F)(F)F [compound 154, (E)-3-(2-Cyclopropylmethyl-1,2,3,4-tetrahydro-isoquinolin-5-yl)-N-(2-dimethylamino-ethyl)-2-methyl-N-(2-trifluoromethyl-benzyl)-acrylamide]",29 nM
